Experimental findings from ChEMBL document CHEMBL1123689, “Quantitative structure-activity analysis in dihydropteroate synthase inhibition by sulfones. Comparison with sulfanilamides” (J Med Chem, 1987) are described below.

In data set [1] the target is T1, Dihydropteroate synthase (Escherichia coli K-12) (UniProt P0AC13).
T1 sequence (whole entry): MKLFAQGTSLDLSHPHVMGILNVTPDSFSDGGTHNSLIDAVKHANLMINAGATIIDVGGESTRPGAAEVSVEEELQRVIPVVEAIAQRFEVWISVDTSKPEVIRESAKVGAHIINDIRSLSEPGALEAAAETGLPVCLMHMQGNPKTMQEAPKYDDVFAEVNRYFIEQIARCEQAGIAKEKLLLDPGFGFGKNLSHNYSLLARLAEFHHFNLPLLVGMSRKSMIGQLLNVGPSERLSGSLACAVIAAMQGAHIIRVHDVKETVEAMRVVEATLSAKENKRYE
The data set can be described thus: Inhibition of dihydropteroate synthase of Escherichia coli.

Another data set deals with Mycobacterium 607. Nature of the data set: Inhibition of Dihydropteroate synthase of Mycobacterium 607 and log (1/MIC) was reported.
The nature of data set [2]: pKa value by spectrophotometrically at pH 8.2. Type of data set: physicochemical.
The nature of data set [3]: pKa value by spectrophotometrically at pH 8.2 (for mono ionic form). Type of data set: physicochemical. Particulars: read-out: pKa1.
Data set [4] can be described thus: pKa value was determined by spectrophotometrically at pH 8.2 (for di ionic form ). The note with it: read-out: pKa2. It counts as physicochemical.
Data set [5] is described as follows: pKa value by spectrophotometrically at pH 8.2 (for di ionic form ). It counts as physicochemical. Particulars: read-out: pKa2.

Values joined by “and” are separate entries in the source; they are usually repeats but may differ in a detail not shown here. Identical values can stand only once.

Regarding `N#Cc1ccc(S(=O)(=O)c2ccc(N)cc2)cc1`, in data set [1], the EII50 stood at 67.3.

The compound `COc1ccc(S(=O)(=O)c2ccc(N)cc2)c(OC)c1` came in with an EII50 in data set [1] of 3.21.

`CCNc1ccc(S(=O)(=O)c2ccc(N)cc2)cc1` yielded an EII50 in data set [1] of 4.53. Further, the Log 1/MIC in the data set with Mycobacterium 607 is 4.26.

As to `NC(=O)c1ccc(S(=O)(=O)c2ccc(N)cc2)cc1`, in data set [1], the EII50 came out at 22.6.

`Nc1ccc(S(=O)(=O)c2ccc(C(=O)O)cc2)cc1` showed an EII50 in data set [1] of 5.09. Besides, in data set [2], the pKa was determined as 3.6.

Compound `COC(=O)c1ccc(S(=O)(=O)c2ccc(N)cc2)cc1` displayed an EII50 in data set [1] of 34.

In data set [1], `Nc1ccc(S(=O)(=O)c2ccccc2N)cc1` registered an EII50 of 2.27. This compound also registered a Log 1/MIC in the data set on Mycobacterium 607 of 4.35.

With `CN(C)c1ccc(S(=O)(=O)c2ccc(N)cc2)cc1`, the EII50 in data set [1] turned out to be 3.63.

For the compound `Nc1ccc(S(=O)(=O)c2ccc(O)cc2)cc1`, in data set [1], the EII50 was 1.5 and 2.45. Further, the Log 1/MIC with Mycobacterium 607 was determined as 5.96.

Take `Nc1ccc(S(=O)(=O)c2ccc(O)cc2O)cc1`: the EII50 in data set [1] was determined as 0.71. In addition, the pKa is 7.67 in data set [3] and 10.1 in data set [4].

In data set [1], `Cc1cc(C)c(S(=O)(=O)c2ccc(N)cc2)c(C)c1` showed an EII50 of 1.69.

Take `CCN(CC)c1ccc(S(=O)(=O)c2ccc(N)cc2)cc1`: in data set [1], the EII50 was 2.64.

For `Nc1ccc(S(=O)(=O)c2ccc(NC=O)cc2)cc1`, the EII50 in data set [1] turned out to be 5.79. Moreover, the Log 1/MIC in the data set on Mycobacterium 607 was 4.74.

Regarding `Nc1ccc(S(=O)(=O)c2ccc(Br)cc2)cc1`, in data set [1], the EII50 came to 11.1. For the same compound, the Log 1/MIC in the data set on Mycobacterium 607 was determined as 3.59.

`CCN(CC)C(=O)c1ccc(S(=O)(=O)c2ccc(N)cc2)cc1` had an EII50 in data set [1] of 49.1.

Compound `COc1cc(OC)c(S(=O)(=O)c2ccc(N)cc2)c(OC)c1` showed an EII50 in data set [1] of 12.9.

The compound `Nc1ccc(S(=O)(=O)c2ccc(N)cc2N)cc1` gave an EII50 in data set [1] of 1.59.

`Nc1ccc(S(=O)(=O)c2ccccc2)cc1` returned an EII50 in data set [1] of 9.56.

As to `Nc1ccc(S(=O)(=O)c2cccc(N)c2)cc1`, the EII50 in data set [1] amounted to 6.04. The compound further had a Log 1/MIC in the data set with Mycobacterium 607 of 4.62.

Turning to `Nc1ccc(S(=O)(=O)c2ccc([N+](=O)[O-])cc2)cc1`, the EII50 in data set [1] was determined as 45.3. Besides, the Log 1/MIC with Mycobacterium 607 came to 3.36.

In data set [1], `Nc1ccc(S(=O)(=O)c2ccc(N)cc2)cc1` had an EII50 of 2.64.

`CC(=O)Nc1ccc(S(=O)(=O)c2ccc(N)cc2)cc1` gave an EII50 in data set [1] of 5.75.

In data set [1], `Nc1ccc(S(=O)(=O)c2c(Cl)cc(Cl)cc2Cl)cc1` displayed an EII50 of 3.31.

In data set [1], `Nc1ccc(S(=O)(=O)c2ccc(Cl)cc2Cl)cc1` registered an EII50 of 2.24.

Consider `Cc1ccc(S(=O)(=O)c2ccc(N)cc2)cc1`, for which the EII50 in data set [1] was 6.04.

With `Nc1ccc(S(=O)(=O)c2c(O)cc(O)cc2O)cc1`, the EII50 in data set [1] is 1.46 and 1.91. Further, the pKa in data set [3] came to 7.69; in data set [5] it was 9.62.

Consider `Nc1ccc(S(=O)(=O)c2ccc(NO)cc2)cc1`, for which, in data set [1], the EII50 was found to be 4.53. The compound further yielded a Log 1/MIC in the data set on Mycobacterium 607 of 4.46.

In data set [1], `Nc1ccc(S(=O)(=O)c2ccc([N+](=O)[O-])cc2[N+](=O)[O-])cc1` showed an EII50 of 36.3.

`COc1ccc(S(=O)(=O)c2ccc(N)cc2)cc1` registered an EII50 in data set [1] of 6.6. The same compound displayed a Log 1/MIC with Mycobacterium 607 of 4.02.

In data set [1], `Nc1ccc(S(=O)(=O)c2ccc(Cl)cc2)cc1` registered an EII50 of 20.8.

In turn, `Nc1ccc(S(=O)(=O)c2ccc(F)cc2)cc1` came in with an EII50 in data set [1] of 18.1. The same compound registered a Log 1/MIC in the data set with Mycobacterium 607 of 3.5.

As for `CC(=O)c1ccc(S(=O)(=O)c2ccc(N)cc2)cc1`, the EII50 in data set [1] worked out at 43.4.

`Cc1ccc(S(=O)(=O)c2ccc(N)cc2)c(C)c1` displayed an EII50 in data set [1] of 1.89.
